Results as given in paper PMC3429785 (Bioconjugate chemistry, 2012).

Legend:
[1] = tested on: JRFL luciferase reporter pseudovirions (HOS-CD4-CCR5 target cells); assay: Pseudovirion infectivity assay, JRFL; assay type: cell-based, HIV-1; details: JRFL strain
[2] = tested on: HXB2 luciferase reporter pseudovirions (HOS-CD4-CXCR4 target cells); assay: Pseudovirion infectivity assay, HXB2; assay type: cell-based, HIV-1; details: HXB2 strain

## C34-PEG80-Chol: C-peptide (C34) cholesterol conjugate with PEG80 linker
[1]
  fold worse than the optimal PEG length: 4 fold

## C34-PEG11-Chol: C-peptide (C34) cholesterol conjugate with PEG11 linker
[2]
  additional fold improvement in potency over short PEG2 linker: 2 fold

## C34-PEG2-Chol: C-peptide (C34) cholesterol conjugate with short PEG2 linker [reference compound]
[2]
  fold improved potency of cholesterol conjugate compared to C34: ~ 40 fold
